Reference: patent US9718790B2, “Triazine derivative and pharmaceutical composition having an analgesic activity comprising the same” (SHIONOGI & CO., LTD., priority 2010, dated 2017)

Experiments:
[1] = system: partial sciatic nerve ligation model in rats; assay: Analgesic effect in a Seltzer model, Evaluation (1): mechanical allodynia, von Frey filaments; format: in vivo; conditions: rat, oral single administration, at 3 hours, read-out: analgesic effect, percent reversal of mechanical allodynia
Text: Rats were anaesthetized using isoflurane/O2 inhalation anaesthesia. After induction of anesthesia, the left thigh was shaved. An incision was made in the skin just below the hip bone. The muscle was bluntly dissected to expose the sciatic nerve. One third (⅓) to one half (½) of the sciatic nerve thickness was tightly ligated and the wound was closed. The right thigh is used as a sham-operated control. The right thigh undergoes an identical procedure with the left hind limb, however, the sciatic nerve is not manipulated or ligated.
Two weeks after nerve ligation, the effect on mechanical allodynia was assessed using a series of von Frey filaments. For habituation, the rats were placed into a plastic cage on a wire mesh bottom. The mechanical sensitivity (mechanical threshold) of the hind paws was estimated with a series of von Frey filaments (0.4-20 g). The measurement of mechanical sensitivity of the right and left hind paws was performed to obtain predose mechanical sensitivity. The rats showing thee threshold change from 0.6 to 2 g (in nerve ligated side) and 8 to 15 g (in sham operated side) were used in the experiments. On the day belone the experiment, the rats were evaluated with a series of von Frey filaments to familiarize them with the test procedure. The adopted animal was administrated with the test compounds. The test compounds were homogenized with mortar and pestle and suspended or diluted in 0.5% Methyl Cellulose to prepare 0.1-2.0 mg/mL/kg suspension and orally administered to rat using a syringe attached with a sonde. Post-dose mechanical sensitivities of the right and left hind paws were measured at approximately 1 to 5 hours after drug administration. Percent reversal of mechanical allodynia for each rat was calculated using the following formula. The analgesic effects of the compounds were compared.

human P2X3 receptor = human P2X3 receptor (Homo sapiens (Human), UniProt P56373); assay: Evaluation of human P2X3 receptor inhibitory activity (Fluo-3 calcium fluorescence, FDSS 3000, ATP stimulation); format: cell-based;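 note: stimulus was 50 nM ATP with fluorescence followed for 3 min, and the response per well was peak post-ATP fluorescence divided by the reading at measurement start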
Sequence of human P2X3 receptor (P56373 whole entry): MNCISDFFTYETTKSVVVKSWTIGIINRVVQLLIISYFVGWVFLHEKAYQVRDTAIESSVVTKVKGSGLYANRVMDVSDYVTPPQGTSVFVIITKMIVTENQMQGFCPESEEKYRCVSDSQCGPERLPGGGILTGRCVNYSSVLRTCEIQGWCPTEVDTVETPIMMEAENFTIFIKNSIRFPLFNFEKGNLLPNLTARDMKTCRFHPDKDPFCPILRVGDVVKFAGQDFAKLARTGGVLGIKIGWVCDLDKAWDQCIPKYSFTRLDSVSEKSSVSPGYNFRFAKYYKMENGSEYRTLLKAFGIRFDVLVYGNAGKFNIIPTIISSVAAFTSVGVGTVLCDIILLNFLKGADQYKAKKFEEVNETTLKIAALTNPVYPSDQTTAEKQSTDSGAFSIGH

[2] = Bioavailability (BA) test; format: in vivo; conditions: plasma; mice or SD rats, oral vs intravenous AUC
Protocol: (1) Animals: Mice or SD rats were used
(2) Breeding conditions: Mice or SD rats were allowed to freely take solid food and sterilized tap water.
(3) Dose and grouping: orally or intravenously administered at a predetermined dose; grouping was as follows (Dose depends one the compound) • Oral administration: 0.3 to 30 mg/kg (n=2 to 3) • Intravenous administration: 0.5 to 10 mg/kg (n=2 to 3)
(4) Preparation of dosing solution: for oral administration, in a solution or a suspension state: for intravenous administration, in a solubilized state
(5) Administration method: in oral administration, forcedly administer into ventriculus with oral probe; in intravenous administration, administer from caudal vein with a needle-equipped syringe
(6) Evaluation items: blood was collected over time, and the plasma concentration of drug was measured by LC/MS/MS
(7) Statistical analysis: regarding the transition of the plasma concentration or the present compound, the area under the plasma concentration-time curve (AUC) was calculated by non-linear least squares program WinNonlin (Registered trade name), and the bioavailability (BA) was calculated the AUCs of the oral administration group and intravenous administration group

CYP2C9 = CYP2C9 (Homo sapiens (Human), UniProt P11712); assay: CYP inhibition test, pooled human hepatic microsome, tolbutamide methyl-hydroxylation; format: in vitro ADME; conditions: substrate tolbutamide
Sequence of CYP2C9 (P11712 whole entry): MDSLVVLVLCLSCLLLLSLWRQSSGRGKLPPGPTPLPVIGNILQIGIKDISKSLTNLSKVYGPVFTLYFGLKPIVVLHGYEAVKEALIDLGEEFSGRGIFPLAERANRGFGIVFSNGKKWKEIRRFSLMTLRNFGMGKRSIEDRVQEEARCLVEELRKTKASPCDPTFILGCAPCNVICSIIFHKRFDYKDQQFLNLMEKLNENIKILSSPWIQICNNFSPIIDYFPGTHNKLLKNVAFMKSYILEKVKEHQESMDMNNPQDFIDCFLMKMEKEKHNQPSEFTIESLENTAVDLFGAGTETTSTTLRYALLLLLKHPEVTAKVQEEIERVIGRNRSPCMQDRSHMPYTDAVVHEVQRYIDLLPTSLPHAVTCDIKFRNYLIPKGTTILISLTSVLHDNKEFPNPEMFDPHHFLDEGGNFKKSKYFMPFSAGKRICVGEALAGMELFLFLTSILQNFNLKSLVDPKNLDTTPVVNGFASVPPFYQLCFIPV
Protocol: (§1) Using commercially available pooled human hepatic microsome, and employlng, as markers, 7-ethoxyresorufin O-deethylation (CYP1A2), tolbutamide methyl-hydroxylation (CYP2C9), mephenyloin 4′-hydroxylation (CYP2C19), dextromethorphan O-demethylation (CYP2D6), and terfenedine hydroxylation as typical substrate metabolism reactions of human main five CYP enzyme forms (CYP1A2, 2C9, 2C19, 2D6, 3A4), an inhibitory degree of each metabolite production amount by a test compound was assessed.
(§2) The reaction conditions were as follows: substrate, 0.5 μmol/L ethoxyresorufin (CYP1A2), 100 μmol/L tolbutamide (CYP2C9), 50 μmol/L S-mephenitoin (CYP2C19), 5 μmol/L dextromethorphan (CYP2D6), 1 μmol/L terfenedine (CYP3A4) reaction time, 15 minutes; reaction temperature, 37° C; enzyme, pooled human hepatic microsome 0.2 mg protein/mL; test drug concentration, 1.0, 5.0, 10, 20 μmol/L (four points).
(§3) Each five kinds of substrates, human hepatic microsome, or a test drug in 50 mmol/L Hepes buffer as a reaction solution was added to a 96-well plate at the composition as described above, NADPH, as a cofactor was added to initiate metabolism reactions as markers and, after the incubation at 37° C. for 15 minutes, a methanol/acetonitrile=1/1 (v/v) solution was added to stop the reaction. After the centrifugation at 3000 rpm for 15 minutes, resorufin (CYP1A2 metabolite) in the supernatant was quantified by a fluorescent multilabel counter and tributamide hydroxide (CYP2CP metabolite), mephenyloin 4′ hydroxide (CYP2C19 metabolite), […] (CYP2D6 metabolite), and terfenadine alcohol (CYP3A4 metabolite) were quantified by LC/MS/MS.

CYP2C19 = CYP2C19 (Homo sapiens (Human), UniProt P33261); assay: CYP inhibition test, pooled human hepatic microsome, mephenytoin 4'-hydroxylation; format: in vitro ADME; conditions: substrate S-mephenitoin
Sequence of CYP2C19 (P33261 whole entry): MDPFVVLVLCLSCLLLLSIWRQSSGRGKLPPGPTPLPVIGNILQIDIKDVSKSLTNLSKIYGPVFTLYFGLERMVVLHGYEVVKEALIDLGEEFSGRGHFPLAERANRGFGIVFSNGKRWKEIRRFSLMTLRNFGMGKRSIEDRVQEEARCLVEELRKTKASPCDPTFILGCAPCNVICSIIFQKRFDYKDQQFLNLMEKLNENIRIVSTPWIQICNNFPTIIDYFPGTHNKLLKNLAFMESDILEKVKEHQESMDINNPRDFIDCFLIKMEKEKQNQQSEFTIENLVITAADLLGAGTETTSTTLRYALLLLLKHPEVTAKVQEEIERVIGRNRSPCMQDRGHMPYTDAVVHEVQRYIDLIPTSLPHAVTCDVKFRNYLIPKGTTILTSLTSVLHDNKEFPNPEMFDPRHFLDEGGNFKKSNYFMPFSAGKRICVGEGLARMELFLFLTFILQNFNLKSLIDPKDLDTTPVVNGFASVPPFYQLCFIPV
Protocol: as §1, §2, §3

CYP3A4 = CYP3A4 (Homo sapiens (Human), UniProt P08684); assay: CYP inhibition test, pooled human hepatic microsome, terfenedine hydroxylation; format: in vitro ADME; conditions: substrate terfenedine
Sequence of CYP3A4 (P08684 whole entry): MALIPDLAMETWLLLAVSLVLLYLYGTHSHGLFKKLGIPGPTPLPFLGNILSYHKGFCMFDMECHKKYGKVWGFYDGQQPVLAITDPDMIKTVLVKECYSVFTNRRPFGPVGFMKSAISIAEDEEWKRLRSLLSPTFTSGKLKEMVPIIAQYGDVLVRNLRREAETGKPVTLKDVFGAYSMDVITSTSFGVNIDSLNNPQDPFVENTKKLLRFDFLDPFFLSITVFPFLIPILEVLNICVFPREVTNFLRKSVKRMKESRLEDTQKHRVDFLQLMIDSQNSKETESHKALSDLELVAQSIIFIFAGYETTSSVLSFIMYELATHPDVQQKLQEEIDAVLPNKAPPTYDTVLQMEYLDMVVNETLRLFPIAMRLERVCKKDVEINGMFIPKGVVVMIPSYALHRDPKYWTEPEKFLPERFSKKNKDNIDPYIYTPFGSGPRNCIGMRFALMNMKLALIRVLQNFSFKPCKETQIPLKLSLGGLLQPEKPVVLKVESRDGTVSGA
Protocol: as §1, §2, §3

CYP1A2 = CYP1A2 (Homo sapiens (Human), UniProt P05177); assay: CYP inhibition test, pooled human hepatic microsome, 7-ethoxyresorufin O-deethylation; format: in vitro ADME; conditions: substrate ethoxyresorufin
Sequence of CYP1A2 (P05177 whole entry): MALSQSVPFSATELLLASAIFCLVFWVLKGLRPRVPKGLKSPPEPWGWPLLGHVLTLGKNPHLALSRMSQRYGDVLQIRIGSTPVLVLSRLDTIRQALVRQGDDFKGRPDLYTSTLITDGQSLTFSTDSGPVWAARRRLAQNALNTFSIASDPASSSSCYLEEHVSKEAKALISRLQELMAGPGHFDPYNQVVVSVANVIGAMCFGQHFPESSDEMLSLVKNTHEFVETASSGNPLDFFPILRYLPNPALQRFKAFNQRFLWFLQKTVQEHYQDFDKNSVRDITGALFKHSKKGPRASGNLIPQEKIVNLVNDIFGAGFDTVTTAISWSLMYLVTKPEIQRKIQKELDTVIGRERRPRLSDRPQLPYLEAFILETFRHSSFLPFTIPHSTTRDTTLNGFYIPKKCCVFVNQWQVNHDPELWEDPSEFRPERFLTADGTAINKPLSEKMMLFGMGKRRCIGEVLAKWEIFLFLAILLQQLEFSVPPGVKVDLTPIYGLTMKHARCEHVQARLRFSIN
Protocol: as §1, §2, §3

CYP2D6 = CYP2D6 (Homo sapiens (Human), UniProt P10635); assay: CYP inhibition test, pooled human hepatic microsome, dextromethorphan O-demethylation; format: in vitro ADME; conditions: substrate dextromethorphan
Sequence of CYP2D6 (P10635 whole entry): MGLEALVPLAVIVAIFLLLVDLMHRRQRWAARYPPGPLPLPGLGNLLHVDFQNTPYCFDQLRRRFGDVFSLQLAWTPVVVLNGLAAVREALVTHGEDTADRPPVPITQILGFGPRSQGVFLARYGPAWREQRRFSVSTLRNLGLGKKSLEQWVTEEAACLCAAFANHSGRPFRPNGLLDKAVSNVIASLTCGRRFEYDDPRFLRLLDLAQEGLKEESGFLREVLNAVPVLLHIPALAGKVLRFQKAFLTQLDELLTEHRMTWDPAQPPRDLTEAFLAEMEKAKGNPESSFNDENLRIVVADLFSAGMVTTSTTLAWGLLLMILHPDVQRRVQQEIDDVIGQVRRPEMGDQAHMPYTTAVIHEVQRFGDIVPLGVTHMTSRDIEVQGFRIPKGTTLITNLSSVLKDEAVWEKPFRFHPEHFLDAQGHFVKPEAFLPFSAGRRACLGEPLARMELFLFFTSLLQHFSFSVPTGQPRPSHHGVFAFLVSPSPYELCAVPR
Protocol: as §1, §2, §3

serum = assay: Protein binding test (equilibrium dialysis, serum); format: in vitro ADME; conditions: 37° C., 24 hours, 2 μg/mL
Protocol: The unbound fraction the present compound in serum was measured using serum of various species.
The reactive conditions are as follows: Evaluation method, Equilibrium dialysis; Reaction time, 24 hours; Reaction temperature, 37° C.; Concentration of the present compound, 2 μg/mL.
The test solution was added to each serum and the mixture was agitated to prepare the serum samples at the concentration mentioned above. Each serum sample was added into one side or the cell and phosphate buffered saline (PBS) was added into the other side to perform equilibrium dialysis at 37° C. for 24 hours. Then, the concentration of the compounds in the samples that were obtained from both sides was measured by LC/MS/MS.
(Result) The ratio of PBS concentration to serum concentration is expressed as unbound fraction.

[3] = human P2X3 receptor, Test Example 1
[4] = C6BU-1 cells stably expressing human P2X3 receptor
[5] = C6BU-1 cells stably expressing human P2X3 receptor, Fluo-3 fluorescence, FDSS 3000

Structure (SMILES)	inhibition in vivo at 3 mg/kg [1]	IC50 (human P2X3 receptor; [3])	IC50 (human P2X3 receptor; [4])	also measured
O=c1[nH]/c(=N\c2ccc(Oc3ccon3)cc2)n(Cc2ccc(Cl)cc2)c(=O)n1CCO [Compound I-2292]	> 30%	12 nM		
Cc1ccc(Cn2c(=O)n(C[C@H](C)C(=O)O)c(=O)[nH]/c2=N\c2ccc(CC(C)C)c(Cl)c2)cc1 [Compound I-1373]	> 30%		4 nM	
Cc1cc(/N=c2\[nH]c(=O)n([C@@H](C)[C@@H](C)C(=O)O)c(=O)n2Cc2ccc(Cl)cc2)ccc1OC(C)C [Compound I-0826]	> 30%	19 nM		
O=c1[nH]/c(=N\c2ccc(Oc3ccon3)cc2)n(Cc2ccc(Cl)cc2)c(=O)n1C[C@H](O)CO [Compound I-2293]	> 30%	6 nM		
O=c1[nH]/c(=N\c2ccc(OCC3CC3)cc2)n(Cc2ccc(Cl)cc2)c(=O)n1CC(CO)CO [Compound I-1849]	> 30%			IC50 (human P2X3 receptor; [5]): 7 nM
Cn1c(=O)[nH]/c(=N\c2ccc(Oc3cccc(C(=O)O)n3)cc2)n(Cc2ccc(Cl)cc2)c1=O [Compound I-2272]	> 30%	8 nM		
Cc1ccc(Cn2c(=O)n([C@@H](C)[C@@H](C)C(=O)O)c(=O)[nH]/c2=N\c2ccc(OC(C)C)c(Cl)c2)cc1 [Compound I-0931]	> 30%			IC50 (human P2X3 receptor; [5]): 12 nM
CCn1c(=O)[nH]/c(=N\c2ccc(Oc3ccc(C(N)=O)nn3)cc2)n(Cc2ccc(Cl)cc2)c1=O [Compound I-2283]	> 30%	< 4 nM		
Cn1c(=O)[nH]/c(=N\c2ccc(Oc3cnc(C#N)cn3)cc2)n(Cc2ccc(Cl)cc2)c1=O [Compound I-2428]	> 30%	5 nM		
Cc1cc(Oc2ccc(/N=c3\[nH]c(=O)n(C[C@H](O)CO)c(=O)n3Cc3ccc(Cl)cc3)cc2)no1 [Compound I-1757]	> 30%			IC50 (human P2X3 receptor; [5]): 12 nM
CC(CO)(CO)Cn1c(=O)[nH]/c(=N\c2ccc(Oc3ccon3)cc2)n(Cc2ccc(Cl)cc2)c1=O [Compound I-2369]	> 30%	3 nM		
COC(=O)[C@@H](C)Cn1c(=O)[nH]/c(=N\c2cccc(C3C=CCCC3)c2)n(Cc2ccc(C)cc2)c1=O (some centres unmarked) [Compound I-1079]				bioavailability [2]: > 99.9%; IC50 (CYP2C9): > 20000 nM; IC50 (CYP2C19): > 20000 nM; IC50 (CYP3A4): > 20000 nM; IC50 (CYP1A2): > 20000 nM; IC50 (CYP2D6): > 20000 nM
CNC(=O)c1cc(Oc2ccc(/N=c3\[nH]c(=O)n(C)c(=O)n3Cc3ccc(Cl)cc3)cc2)ccn1 [Compound I-2011]			10 nM	unbound fraction (ratio of PBS concentration to serum concentration) (serum): 0.5%
CCn1c(=O)[nH]/c(=N\c2ccc(Oc3ncc(C(=O)O)s3)cc2)n(Cc2ccc(Cl)cc2)c1=O [Compound I-2153]	> 30%		6 nM	
Cc1cc2cc(/N=c3\[nH]c(=O)n(C[C@H](C)C(=O)O)c(=O)n3Cc3ccc(Cl)cc3)ccc2[nH]1 [Compound I-0697]			57 nM	
CCCOc1ccc(/N=c2\[nH]c(=O)n(C[C@H](C)C(=O)O)c(=O)n2Cc2ccc(Cl)cc2)cc1 [Compound I-0623]			20 nM	
CCOC(=O)CCn1c(=O)[nH]/c(=N\c2ccc(Oc3ccnc(O)c3)cc2)n(Cc2ccc(Cl)cc2)c1=O [Compound I-1434]			2 nM	
Cc1ccc(Oc2ccc(/N=c3\[nH]c(=O)n(CC(=O)O)c(=O)n3Cc3ccc(Cl)cc3)cc2)cn1 [Compound I-1934]			198 nM	
CCOC(=O)CCCn1c(=O)[nH]/c(=N\c2ccc(Oc3ccc(C)nc3)cc2)n(Cc2ccc(C)cc2)c1=O [Compound I-1369]			3 nM	
CC(C)Oc1ccc(/N=c2\[nH]c(=O)n([C@@H]3C[C@H]3C(=O)O)c(=O)n2Cc2ccc(Cl)cc2)cc1F [Compound I-0612]			38 nM	
